Reference: patent US8841233B2, “Herbicidal compositions comprising 4-amino-3-chloro-5-fluoro-6-(4-chloro-2-fluoro-3-methoxyphenyl) pyridine-2-carboxylic acid or a derivative thereof and 4-hydroxyphenyl-pyruvate dioxygenase (HPPD) inhibitors” (Dow Agrosciences LLC, priority 2012, dated 2014)

Tested on: SETVI
Experiment: Pre-emergence soil-applied weed control, greenhouse (Example III)
Assay type: in vivo, Setaria viridis (L.) Beauv.
Source text: Evaluation of Pre-emergence Soil-Applied Herbicidal Mixtures for Weed Control
Seeds or nutlets of the desired test plant species were planted in a soil matrix prepared by mixing a loam soil (32 percent silt, 23 percent clay, and 45 percent sand, with a pH of about 6.5 and an organic matter content of about 1.9 percent) and calcareous grit in an 80 to 20 ratio. The soil matrix was contained in plastic pots with a volume of 1 quart and a surface area of 83.6 square centimeters (cm^2).
Treatments consisted of the benzyl ester of 4-amino-3-chloro-5-fluoro-6-(4-chloro-2-fluoro-3-methoxy-phenyl)pyridine-2-carboxylic acid (compound A) formulated as an SC (suspension concentrate) and various herbicidal components alone and in combination. Forms of compound A were applied on an acid equivalent basis.
Other herbicidal components were applied on an acid equivalent or active ingredient basis and included the 4-hydroxyphenyl pyruvate dioxygenase (HPPD)-inhibiting herbicide, isoxaflutole, formulated as Balance Pro®.
Treatment requirements were calculated based upon the rates being tested, the concentration of active ingredient or acid equivalent in the formulation, and a 12 mL application volume at a rate of 187 L/ha.
For treatments comprised of formulated compounds, measured amounts of compounds were placed individually in 25 mL glass vials and diluted in a volume of 1.25% (v/v) Agri-Dex® crop oil concentrate (COC) to obtain 12× stock solutions. […] Application solutions were prepared by adding an appropriate amount of each stock solution (e.g., 1 mL) and diluted to the appropriate final concentrations with the addition of 10 mL of an aqueous mixture of 1.25% (v/v) COC so that the final spray solutions contained 1.25% (v/v) COC.
All stock solutions and applications solutions were visually inspected for compound compatibility prior to application. Spray solutions were applied to the soil with an overhead Mandel track sprayer equipped with a 8002E nozzles calibrated to deliver 187 L/ha over an application area of 0.503 m^2 at a spray height of 18 inches (46 cm) above average pot height. Control pots were sprayed in the same manner with the solvent blank.
The treated and control pots were placed in a greenhouse and top watered as needed. When required to ensure good germination and healthy plants, a fungicide treatment and/or other chemical or physical treatment was applied. […] After approximately 4 weeks, the condition of the test plants as compared with that of the untreated plants was determined visually and scored on a scale of 0 to 100 percent where 0 corresponds to no injury or growth inhibition and 100 corresponds to complete kill. […]

## COc1c(Cl)ccc(-c2nc(C(=O)OCc3ccccc3)c(Cl)c(N)c2F)c1F [Compound A Benzyl Ester, benzyl ester of 4-amino-3-chloro-5-fluoro-6-(4-chloro-2-fluoro-3-methoxy-phenyl)pyridine-2-carboxylic acid]
16 gae/ha
  Visual Weed Control (%) - 32 DAA SETVI Obs: 0%
32 gae/ha
  Visual Weed Control (%) - 32 DAA SETVI Obs: 13%
